# Results reported in patent publication US20050042747A1, “Hivgp120-induced bob/gpr15 activation” (priority 2001, published 2005).
# Entries after “also recorded” stand apart in the source; their conditions may differ.
# How the values were obtained:
# [1] = system: microtubules in HT-29 cells; assay: Microtubule staining (acetylated tubulin) in HT-29 cells; format: cell-based, human; details: pretreatment before gp120
# Procedure: To examine the microtubules, HT-29 cells were treated with 10 nM gp120CM235 or 50 pM gp120IIIB, then fixed one hour later in 4 g/100 ml paraformaldehyde PBS, then stained with mouse anti acetylated tubulin (5 μg/ml, Sigma) by a method similar to that given above. Some cells were pretreated with 50 μg/ml antiBob37 overnight, 1 μg/ml pertussis toxin overnight, or 4.6 μg/ml U73122 for one hour before the gp120 was added. Untreated cells were also stained.
# Similarly treated undifferentiated HT-29 cells (except that Fluo-4 was not added) were fixed in paraformaldehyde phosphate buffered saline one hour after gp120 treatment.
# [2] = system: gp120-induced calcium signaling in HT-29 cells; assay: Inhibition of gp120-induced calcium signaling in HT-29 cells; format: cell-based, human; details: pretreatment
# Procedure: Calcium studies were done on HT-29 cells and Ghost (3) cells loaded with Fluo 4. The cells were placed in Locke's buffer containing 5 μg/ml Fluo 4 AM ester (Molecular Probes) for 20 to 30 minutes, then in Locke's buffer for an additional 30 minutes before testing. Various concentrations of gp120IIIB (X4 trophic), gp120CM235 (R5 trophic), gp120mN (X4 trophic), gp12093TH975 (nonsyncytium-inducing primary isolate from an asymptomatic subject, trophism undetermined but likely R5), and gp120SF2 (X4R5 trophic), ranging from 10 nM to less than 1 pM, were added in Locke's buffer.^6 The gp120 proteins were obtained from the AIDS Research Reagent Referral Program. Some HT-29 cells were given one of the following pretreatments: 50 μg/ml anti-Bob37 overnight, 1 μg/ml pertussis toxin overnight, or 4.6 μg/ml U73122 for one hour. With the HT-29 cells only, similar tests were also performed with SDF-1, MIP-1α, MIP-1β, and RANTES rather than gp120. The cells were visualized every 4 seconds in a confocal microscope, using 488 nm argon laser excitation and detection filters appropriate for fluorescein-like dyes.
# Blocking antibody experiments were done with HT-29 cells (monitoring calcium flux, microtubule loss, or transepithelial resistance), with Ghost (3) Bob cells (monitoring calcium flux) and peripheral blood mononuclear cells (monitoring calcium flux and HIV infection). Specifics of these protocols and the specific results are given herein. […] Antibody concentrations of 40 to 50 micrograms/ml overnight were needed for maximal effect.
# For the first two or three days after plating, gp120 induces an immediate (within 4 seconds) calcium flux in undifferentiated HT-29 cells. The cells had previously been loaded with Fluo-4 AM ester (Molecular Probes, Eugene Oreg.) 5 micrograms/ml in the presence of Pleuronic F-127 0.02% in Locke's buffer for 30 minutes, then incubated at room temperature for an additional 30 minutes. Gp120IIIB was added while the cells were on an inverted confocal microscope using a 488 nm argon laser, with detection filters suitable for fluorescein-like dyes. […]
# [3] = GalCer-gp120 interactions at the air-water interface (surface pressure); format: binding; details: gp120 5 nM in aqueous subphase
# Procedure: A monomolecular film of GalCer was prepared at the air-water interface and gp120 purified from either IIIB (full squares), SEN (open circles) or 89.6 (full circles) isolates was added in the aqueous subphase at a concentration of 5 nM. The kinetics of the surface pressure increase induced by the viral glycoproteins are shown.
# Galactosylceramide with an α-hydroxylated fatty acid (referred to as GalCer throughout this study) was either prepared from bovine brain (Sigma) or purified from HT-29-D4 membrane rafts (Fantini et al., 2000a). The surface pressure was measured with a microtensiometer (Kibron Inc., Finland) specially designed for studying protein-lipid interactions (Fantini et al., 2000a). The experiments were carried at 25° C. out in a laboratory equipped with a filtered air supply. A solution of GalCer was prepared extemporaneously in hexane:chloroform:methanol, 11:5:4 (v:v:v) at a concentration of 1 mg/ml. The lipid was carefully spread onto the meniscus of a pure water subphase (800 μl). The proteic ligand (GPR15/Bob peptides or HIV-1 gp120) was injected into the subphase with a 10 μl Hamilton syringe. The surface pressure was continuously measured as a function of time until reaching equilibrium corresponding to the maximal surface presure increase (Δπmax) expressed in mN/m.
# In a recent study, it was shown that the interaction between GalCer and gp120 purified from HIV-1(IIIB) was very efficient, whereas gp120s from 89.6 and SEN isolates interacted very weakly (Hammache et al., 1998). The kinetics of this interaction are an important physicochemical parameter allowing the direct comparison of GalCer recognition by various gp120s. In the experiment shown in FIG. 11, gp120 purified from IIIB, SEN, or 89.6 was injected underneath a monomolecular film of GalCer at the air-water interface. The GalCer film mimics the topology of a GalCer raft as it is organized in the external leaflet of the plasma membrane. For this reason, the Langmuir film balance technique is one of the most sensitive and reliable for studying protein-glycolipid interactions (Maggio et al., 1994). […] The surface increase indicates a condensing effect of the gp120 on the lipidic film due to its interaction with GalCer molecules (Hammache et al., 1998). […] At this time however, the level of interaction indicated by the absolute increase of the surface pressure was identical to the one of gp120(IIIB). […] The GalCer-binding capacity of gp120(SEN) was reevaluated and shown to occur much more slowly, but not less efficiently, than of gp120(IIIB).
# [4] = system: apical sodium/glucose cotransporter (SGLT1); assay: Sodium-dependent glucose transport activity (ΔIsc after α-methylglucose) in HT-29-D4 cells; format: cell-based, human; details: for ΔIsc after α-methylglucose treatment: 50 nM, 3 mM α-methylglucose
# Procedure: HT-29-D4 cells were cultured in two-compartment cell culture chambers on a polycarbonate filter (Transwell-clear, Catalog No. 3450, Costar) and analyzed for electrical parameters in modified custom made Ussing chambers as previously reported (Fantini et al., 1989). The chamber was maintained at 37° C. on a hot plate. Apical and basal compartments were filled with electrophysiological medium: 137 mM NaCl, 5.36 mM KCl, 0.4 mM Na2HPO4, 0.8 mM MgCl2, 1.8 mM CaCl2, 20 mM N-2-hydroxyethylpiperazine-N′-2-ethanesulfonic acid (HEPES), pH 7.4. Transepithelial potential difference was measured with Ag electrodes and continuously recorded using a voltage clamp unit (Physiologic Instrument). Bipolar current pulses (20 μA for 2 s, every 30 s) were passed through Ag electrodes to measure the transepithelial resistance (TEER), which was determined according to the Ohm's law (Delézay et al., 1997b). The sodium-dependent electrogenic glucose transport activity was measured as an increase of short-circuit current (ΔIsc) following apical incubation of HT-29-D4 cells with the nonmetabolizable analog of glucose α-methylglucose (Fantini et al., 2000a). Except when indicated, purified gp120s were incubated in the apical compartment of the cell culture chamber (total volume 1.5 ml instead of 10 ml for the basal compartment of the Ussing chamber device unit).
# Differentiated HT-29-D4 cells cultured in Transwell chambers were either not treated (control) or treated with 50 nM of purified gp120 (IIIB isolate) for the time indicated in serum-containing culture medium. Transepithelial resistance (TEER) values and short-circuit current variations (ΔIsc) after incubation with 3 mM α-methylglucose (sodium-dependent glucose transport activity) were measured as described in Materials and Methods. The results are expressed as the mean SD of 4 separate experiments.
# [5] = system: HT-29-D4 cells; assay: Cytoskeletal organization and ultrastructure of HT-29-D4 cells (confocal, electron microscopy); format: cell-based, human
# Procedure: HT-29-D4 cells grown on glass coverslips were fixed with 4% paraformaldehyde (w/v) in 0.1M phosphate buffer, pH 7.4, for 30 min at room temperature. The cells were then treated with 50 mM […] (15 min), rinsed with phosphate buffer containing 1% bovine serum albumin (BSA), and permeabilized with 0.2% Triton X-100 in phosphate buffer containing 5% BSA (30 min). For α-tubulin staining, coverslips were incubated in a humid atmosphere at 4° C. for 4 hr with the primary antibody (5 μg/ml) in phosphate buffer containing 1% BSA. After washing, the cells were incubated with fluoresecin-conjugated secondary antibodies for 90 min at 4° C. The coverslips were mounted in a Mowiol solution and analyzed by confocal microscopy (Leica TCS inverted laser scanning microscope) as previously reported (Delézay et al., 1997b). […]
# The α-tubulin labeling was particularly intense in the medium part of the cells where it formed a complex network of microtubules surrounding the nucleus (a, b). […] Therefore, the presence of such cysts in HT-29-D4 cell monolayer was carefully analyzed by single staining with rhodamine-plalloidin. […]
# Next, the ultrastructural changes induced by HIV-1 in differentiated HT-29-D4 cells was analyzed. […] The main ultrastructural change during incubation with virions or gp120 was the presence of intra- and inter-cellular lumina that could be detected in about 5% of the cells. […]
# [6] = system: HT-29-D4 cells; assay: Transepithelial resistance (TEER) of differentiated HT-29-D4 cells; format: cell-based, human; details: for TEER: 50 nM, serum-containing medium, mean SD of 4 experiments; for decrease of transepithelial resistance: after 16 hr
Compound,inhibition of gp120-induced microtubule loss [1],"inhibition of gp120-induced calcium signaling, in words [2]","interaction with GalCer film, in words [3]",time to equilibrium of surface pressure [3],ΔIsc after α-methylglucose treatment ([4]; 16 hr),ΔIsc after α-methylglucose treatment ([4]; 48 hr),reduction of SGLT1 electrogenic activity ([4]; after 16 hr),decrease of SGLT1 activity ([4]; after 48 hr),cells with cysts / lumina ([5]; 1 hr exposure),α-tubulin staining ([5]; 1 hr of incubation),TEER ([6]; 16 hr),TEER ([6]; 48 hr),"TEER enhancement (relative TEER) ([6]; 20 min after addition, electrophysiological medium, n=3)",decrease of transepithelial resistance [6],decrease of transepithelial resistance ([6]; listed as gp120 (IIIB isolate)),decrease of TEER ([6]; after 48 hr),"time at which TEER had decreased to null values ([6]; continuous recording, electrophysiological medium)"
COc1ccc2c(c1)CC[C@@H]1[C@@H]2CC[C@]2(C)[C@@H](NCCCCCCN3C(=O)C=CC3=O)CC[C@@H]12 [U73122],inhibited and not,No significant gp120IIIB-induced calcium signaling; also recorded: inhibited,–,–,–,–,–,–,–,–,–,–,–,–,–,–,–
gp120(IIIB): surface envelope glycoprotein purified from HIV-1(IIIB) by lectin affinity chromatography,–,–,exponential increase in the surface pressure,45 min,0.35 ± 0.07 μA · cm^−2,0.29 ± 0.11 μA · cm^−2,70%,80%,about 5%,dramatic decrease,300 ± 108 Q · cm^2,320 ± 267 Q · cm^2,1.60±0.17,greater than 80%,81%,74%,12 h
pertussis toxin,inhibited and not,No significant gp120IIIB-induced calcium signaling; also recorded: inhibited,–,–,–,–,–,–,–,–,–,–,–,–,–,–,–
